According to US11136312B2, “3,4,5-trisubstituted-1,2,4-triazoles and 3,4,5-trisubstituted-3-thio-1,2,4-triazoles and uses thereof” (Board of Trustees of Southern Illinois University, priority 2017, dated 2021):

Assays:
Assay in all cases: Competitive radioligand binding, 125I-Tyr-SRIF 14, membrane preparations
[1] = biological target: human somatostatin receptor SSTR1 (Homo sapiens (Human), UniProt P30872); conditions: competitive binding vs 125I-Tyr-SRIF 14, human SSTR1 membranes; read-out: SST1
Method: (§1) Respective membrane receptor preparations were prepared in assay buffer (25 mM HEPES, 10 mM MgCl2, 1 mM CaCl2, 0.5% BSA, pH=7.4) at a 1:150 dilution. […] Binding assays were performed in triplicate for each concentration of ligand in a total volume of 200 μL radioligand (25 μL ligand, 25 μL radioligand, 150 μL receptors) and incubated at room temperature for 90 minutes using a shaking table. Binding was terminated by filtration through GF/B glass fiber filters that were presoaked in 0.5% polyethyleneimine for a minimum of 4 hours. Filters were washed 9× with 1000 μL ice cold wash buffer (50 mM Tris-HCl, pH=7.4, 0.2% BSA). Filters were scored, transferred into plastic test tubes and counted in a gamma counter (Wizard2, Perkin-Elmer). Determination of the Ki for each compound was performed using non-linear regression with GraphPad PRISM-5 software (GraphPad Software, Inc., La Jolla, Calif.).

[2] = biological target: human somatostatin receptor SSTR5 (Homo sapiens (Human), UniProt P35346); conditions: competitive binding vs 125I-Tyr-SRIF 14, human SSTR5 membranes; read-out: SST5
Method: as §1

[3] = biological target: human somatostatin receptor SSTR2A (Homo sapiens (Human), UniProt P30874); conditions: competitive binding vs 125I-Tyr-SRIF 14, human SSTR2A membranes; read-out: SST2
Sequence of human somatostatin receptor SSTR2A (P30874 whole entry): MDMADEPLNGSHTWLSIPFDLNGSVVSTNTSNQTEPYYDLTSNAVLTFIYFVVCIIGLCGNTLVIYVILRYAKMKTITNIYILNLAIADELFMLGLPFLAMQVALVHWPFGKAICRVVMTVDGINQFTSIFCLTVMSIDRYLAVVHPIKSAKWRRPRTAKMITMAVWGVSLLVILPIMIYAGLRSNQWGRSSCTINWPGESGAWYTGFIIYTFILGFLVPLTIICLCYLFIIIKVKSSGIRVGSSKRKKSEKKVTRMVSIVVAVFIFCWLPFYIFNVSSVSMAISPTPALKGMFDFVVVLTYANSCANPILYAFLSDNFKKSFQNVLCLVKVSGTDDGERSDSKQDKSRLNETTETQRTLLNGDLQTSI
Method: as §1

[4] = biological target: human somatostatin receptor SSTR3 (Homo sapiens (Human), UniProt P32745); conditions: competitive binding vs 125I-Tyr-SRIF 14, human SSTR3 membranes; read-out: SST3
Method: Competitive radioligand binding experiments were performed using MEMBRANE TARGET Systems (Perkin-Elmer, Boston, Mass.) for human somatostatin receptors: SSTR1 (ES-520-M400UA), SSTR2A (ES-521-M400UA), SSTR3 (ES523-M400UA), SSTR4 (ES-524-M400UA) and SSTR5 (ES-522-M400UA) receptors. (See Table 1). Respective membrane receptor preparations were prepared in assay buffer (25 mM HEPES, 10 mM MgCl2, 1 mM CaCl2, 0.5% BSA, pH=7.4) at a 1:150 dilution. Binding assays were performed using 1251-Tyr-SRIF 14 (Perkin-Elmer, NEX 3890) dissolved in 1 mM HCl. Binding assays were performed in triplicate for each concentration of ligand in a total volume of 200 μL radioligand (25 μL ligand, 25 μL radioligand, 150 μL receptors) and incubated at room temperature for 90 minutes using a shaking table. Binding was terminated by filtration through GF/B glass fiber filters that were presoaked in 0.5% polyethyleneimine for a minimum of 4 hours. Filters were washed 9× with 1000 μL ice cold wash buffer (50 mM Tris-HCl, pH=7.4, 0.2% BSA). Filters were scored, transferred into plastic test tubes and counted in a gamma counter (Wizard2, Perkin-Elmer). Determination of the Ki for each compound was performed using non-linear regression with GraphPad PRISM-5 software (GraphPad Software, Inc., La Jolla, Calif.).

Row | Ki [1] [µM] | Ki [2] [µM] | Ki [3] [µM] | Ki [4] [µM] | Compound
1 | > 10 | > 10 |  |  | c1ccc(CSc2nnc(-c3c[nH]c4ccccc34)n2CCCc2c[nH]cn2)cc1 [AH-1-86, 3-(4-(3-(1H-imidazol-4-yl)propyl)-5-(benzylthio)-4H-1,2,4-triazol-3-yl)-1H-indole]
2 | > 10 | > 10 | > 10 | > 10 | COc1ccccc1Cc1nnc(CCc2c[nH]c3ccccc23)n1CCCc1c[nH]cn1 [MM-I-21, 3-(2-(4-(3-(1H-Imidazol-4-yl)propyl)-5-(2-methoxybenzyl)-4H-1,2,4-triazol-3-yl)ethyl)-1H-indole]
3 |  |  | > 10 |  | c1ccc(COc2cccc(Cc3nnc(CCc4c[nH]c5ccccc45)n3CCCc3c[nH]cn3)c2)cc1 [MM-I-53, 3-(2-(4-(3-(1H-imidazol-4-yl)propyl)-5-(3-(benzyloxy)benzyl)-4H-1,2,4-triazol-3-yl)-ethyl)-1H-indole]
4 | 1.01 | > 10 | > 10 | > 10 | COc1ccc(Cc2nnc(Cc3c[nH]c4ccc(OC)cc34)n2CCCc2c[nH]cn2)cc1 [SK-I-56, 3-((4-(3-(1H-imidazol-4-yl)propyl)-5-(4-methoxybenzyl)-4H-1,2,4-triazol-3-yl)methyl)-5-methoxy-1H-indole]
5 |  |  | 7.69 |  | Clc1ccc(Cc2nnc(Cc3c[nH]c4ccccc34)n2CCCc2c[nH]cn2)cc1 [SK-I-22, 3-((4-(3-(1H-imidazol-4-yl)propyl)-5-(4-chlorobenzyl)-4H-1,2,4-triazol-3-yl)methyl)-1H-indole]
6 | 1.72 | > 10 | 7.1 | > 10 | COc1ccc2[nH]cc(Cc3nnc(Cc4ccccc4)n3CCCc3c[nH]cn3)c2c1 [SK-I-53, 3-((4-(3-(1H-imidazol-4-yl)propyl)-5-benzyl-4H-1,2,4-triazol-3-yl)methyl)-5-methoxy-1H-indole]
7 | > 10 | > 10 | > 10 | > 10 | c1ccc(Cc2nnc(CCc3c[nH]c4ccccc34)n2CCCc2c[nH]cn2)cc1 [SM-I-26, 3-(2-(4-(3-(1H-Imidazol-4-yl)propyl)-5-benzyl-4H-1,2,4-triazol-3-yl)ethyl)-1H-indole]
8 |  |  | 2.08 |  | Fc1ccc2c(Cc3nnc(Cc4cccc(Br)c4)n3CCCc3c[nH]cn3)c[nH]c2c1 [MM-I-83, 3-((4-(3-(1H-imidazol-4-yl)propyl)-5-(3-bromobenzyl)-4H-1,2,4-triazol-3-yl)methyl)-6-fluoro-1H-indole]
9 |  |  | > 10 |  | COc1ccc(Cc2nnc(CCc3c[nH]c4ccccc34)n2CCCc2c[nH]cn2)cc1 [SM-I-29, 3-(2-(4-(3-(1H-Imidazol-4-yl)propyl)-5-(4-methoxybenzyl)-4H-1,2,4-triazol-3-yl)ethyl)-1H-indole]
10 |  |  | > 10 |  | Clc1ccc(Cc2nnc(CCc3c[nH]c4ccccc34)n2CCCc2c[nH]cn2)cc1 [BN-VI-62, 3-(2-(4-(3-(1H-Imidazol-4-yl)propyl)-5-(4-chlorobenzyl)-4H-1,2,4-triazol-3-yl)ethyl)-1H-indole]

Second part, the compound before the results:

Row | Compound | Ki [1] [µM] | Ki [2] [µM] | Ki [3] [µM] | Ki [4] [µM]
11 | FC(F)(F)c1cccc(Cc2nnc(Cc3c[nH]c4ccccc34)n2CCCc2c[nH]cn2)c1 [MM-I-66, 3-((4-(3-(1H-imidazol-4-yl)propyl)-5-(3-(trifluoromethyl)benzyl)-4H-1,2,4-triazol-3-yl)methyl)-1H-indole] | 0.588 | > 10 | 2.33 | > 10
12 | Fc1ccc(Cc2nnc(Cc3c[nH]c4ccccc34)n2CCCc2c[nH]cn2)cc1 [SK-I-16, 3-((4-(3-(1H-imidazol-4-yl)propyl)-5-(4-fluorobenzyl)-4H-1,2,4-triazol-3-yl)methyl)-1H-indole] |  |  | > 10 | 
13 | Fc1ccc2c(Cc3nnc(Cc4ccccc4)n3CCCc3c[nH]cn3)c[nH]c2c1 [MM-I-89, 3-((4-(3-(1H-imidazol-4-yl)propyl)-5-benzyl-4H-1,2,4-triazol-3-yl)methyl)-6-fluoro-1H-indole] |  |  | > 10 | 
14 | Cn1cc(CCc2nnc(Cc3cccc(C(F)(F)F)c3)n2CCCc2c[nH]cn2)c2ccccc21 [SM-I-76, 3-(2-(4-(3-(1H-imidazol-4-yl)propyl)-5-(3-(trifluoromethyl)benzyl)-4H-1,2,4-triazol-3-yl)ethyl)-1-methyl-1H-indole] |  |  | > 10 | 
15 | CC(C)(C)Cc1nnc(Cc2c[nH]c3cc(F)ccc23)n1CCCc1c[nH]cn1 [SK-I-119, 3-((4-(3-(1H-imidazol-4-yl)propyl)-5-neopentyl-4H-1,2,4-triazol-3-yl)methyl)-6-fluoro-1H-indole] | 4.34 | > 10 | > 10 | > 10
16 | Fc1cc(F)cc(Cc2nnc(CCc3c[nH]c4ccccc34)n2CCCc2c[nH]cn2)c1 [SM-I-55, 3-(2-(4-(3-(1H-Imidazol-4-yl)propyl)-5-(3,5-difluorobenzyl)-4H-1,2,4-triazol-3-yl)ethyl)-1H-indole] | > 10 | > 10 | > 10 | > 10
17 | Fc1ccc2c(Cc3nnc(Cc4cccc(C(F)(F)F)c4)n3CCCc3c[nH]cn3)c[nH]c2c1 [MM-I-87, 3-((4-(3-(1H-imidazol-4-yl)propyl)-5-(3-(trifluoromethyl)benzyl)-4H-1,2,4-triazol-3-yl)methyl)-6-fluoro-1H-indole] |  |  | 3.28 | 
18 | COc1ccc2[nH]cc(Cc3nnc(Cc4ccc(F)cc4)n3CCCc3c[nH]cn3)c2c1 [SK-I-55, 3-((4-(3-(1H-imidazol-4-yl)propyl)-5-(4-fluorobenzyl)-4H-1,2,4-triazol-3-yl)methyl)-5-methoxy-1H-indole] | 1.03 | > 10 | 5.43 | > 10
19 | c1ccc(-c2ccc(Cc3nnc(CCc4c[nH]c5ccccc45)n3CCCc3c[nH]cn3)cc2)cc1 [MM-I-26, 3-(2-(4-(3-(1H-Imidazol-4-yl)propyl)-5-([1,1′-biphenyl]-4-ylmethyl)-4H-1,2,4-triazol-3-yl)ethyl)-1H-indole] |  |  | > 10 | 
20 | CS(=O)(=O)c1cccc(Cc2nnc(CCc3c[nH]c4ccccc34)n2CCCc2c[nH]cn2)c1 [SM-I-92, 3-(2-(4-(3-(1H-imidazol-4-yl)propyl)-5-(3-(methylsulfonyl)benzyl)-4H-1,2,4-triazol-3-yl)ethyl)-1H-indole] |  |  | > 10 | 
21 | FC(F)(F)Oc1cccc(Cc2nnc(CCc3c[nH]c4ccccc34)n2CCCc2c[nH]cn2)c1 [MM-I-36, 3-(2-(4-(3-(1H-imidazol-4-yl)propyl)-5-(3-(trifluoromethoxy)benzyl)-4H-1,2,4-triazol-3-yl)ethyl)-1H-indole] | 4.08 |  | > 10 | 
22 | CS(=O)(=O)c1cccc(Cc2nnc(Cc3c[nH]c4ccccc34)n2CCCc2c[nH]cn2)c1 [MM-I-72, 3-((4-(3-(1H-imidazol-4-yl)propyl)-5-(3-(methylsulfonyl)benzyl)-4H-1,2,4-triazol-3-yl)methyl)-1H-indole] | 0.661 |  | > 10 | 
23 | N#Cc1cccc(Cc2nnc(CCc3c[nH]c4ccccc34)n2CCCc2c[nH]cn2)c1 [MM-I-63, 3-((4-(3-(1H-imidazol-4-yl)propyl)-5-(2-(1H-indol-3-yl)ethyl)-4H-1,2,4-triazol-3-yl)methyl)benzonitrile] |  |  | > 10 | 
24 | N[C@H](Cc1c[nH]c2ccccc12)c1nnc(Cc2cccc(Cl)c2)n1CCCc1c[nH]cn1 [BN-VI-87, (R)-1-(4-(3-(1H-Imidazol-4-yl)propyl)-5-(3-chlorobenzyl)-4H-1,2,4-triazol-3-yl)-2-(1H-indol-3-yl)ethanamine] |  |  | > 10 | 
25 | O=[N+]([O-])c1cccc(Cc2nnc(CCc3c[nH]c4ccccc34)n2CCCc2c[nH]cn2)c1 [MM-I-43, 3-(2-(4-(3-(1H-Imidazol-4-yl)propyl)-5-(3-nitrobenzyl)-4H-1,2,4-triazol-3-yl)ethyl)-1H-indole] |  |  | > 10 | 
26 | Clc1cc(Cl)cc(Cc2nnc(CCc3c[nH]c4ccccc34)n2CCCc2c[nH]cn2)c1 [BN-VI-89, 3-(2-(4-(3-(1H-Imidazol-4-yl)propyl)-5-(3,5-dichlorobenzyl)-4H-1,2,4-triazol-3-yl)ethyl)-1H-indole] |  |  | 6.98 | 
